Patent US4996223A, “New organic compounds having opioid properties” (priority 1986, dated 1991)
In brackets after ≈: the same amount, converted by molar mass. Entries after “also recorded” stand apart in the source; their conditions may differ. Where two headings read alike, the source gives them in different places.

How the values were obtained:
[1] = test system: opioid receptors of the guinea pig ileum; assay type: cell-based; details: for inhibition of electrically induced contractions / antagonism by naloxone / opioid (opiate-like) activity in vitro: words; for antagonism by naloxone: naloxone 0.5, 5 and 50 ng/ml (eseroline) or 5 and 50 ng/ml; for opioid (opiate-like) activity in vitro: isolated tissue preparations; for log dose ratio (±S.D.), shift by naloxone, ileum: mean of not less than 6 determinations; for enhancement of electrically induced contractions / excitatory stage: eseroline above 400 ng/ml in presence of naloxone; for evidence of cholinesterase inhibition on the ileum: inferred from enhancement of contractions
Method: Sections of guinea-pig ileum were set up for transmural stimulation under a resting tension of 0.75 g in Krebs solution bubbled with 5% carbon dioxide in oxygen at 37 degrees C according to the method of Kosterlitz and Watt (1968) Contractions were elicited from stainless steel electrodes, one of which was sited in the lumen at supramaximal voltage and a frequency of 0.05 Hz. Isometric contractions were recorded on a Rikadenki recorder. Potential agonists were added directly to the bath and the contact time was until maximum inhibition had occurred. The responses of the preparation in the presence of naloxone were examined with the naloxone present in the physiological solution. Results were expressed as percent inhibition. In each experiment a log dose effect relationship was determined using at least four concentrations in the absence of antagonist, and then in the presence of one or more concentrations of naloxone.
(§1) Eseroline was dissolved in minimal 0.1N hydrophloric acid and dilutions made with water. Salts were dissolved in water.

mice [2] = test: animal or person; assay type: in vivo; details: Mus musculus, sc, subcutaneous injection, 95% confidence intervals, read-out: ED50 Abdominal Constriction (Acetic acid)
Method: (§2) Analgesic activity was assessed using two methods in mice--the Hot Plate Test and the Abdominal Constriction Test (acetic acid). The test drug was given by subcutaneous injection and the results expressed as ED50 with 95% confidence intervals.
(§3) ED50 and 95% confidence intervals.
(§4) mg/kg, subcutaneous injection.

[3] = test system: opioid receptors of the mouse vas deferens; assay type: cell-based; details: for log dose ratio (±S.D.), shift by naloxone, vas deferens: mean of not less than 6 determinations
Method: Vasa deferentia were removed and mounted in 1.2 ml tissue baths under a resting tension of 200 mg in Mg^2+ -free Krebs solution bubbled with a mixture of 95% oxygen and 5% carbon dioxide at 36 degrees C. The preparations were left for 1 hour to equilibriate. Contractions were elicited from platinum electrodes fused to the sides of the tissue bath using supramaximal voltage (usually above 100 V), a pulse width of lms and a frequency of 0.1 Hz. Isometric contractions were recorded on a Grass polygraph. As with the ileum, concentration effect relationships were determined in the absence then presence of naloxone.
as §1
The values are derived from individual comparisons of the percentage inhibition of the preparations in the presence of a concentration of naloxone and that in the same preparation in the absence of naloxone.

mice [4] = test: animal or person; assay type: in vivo, mouse; details: for ED50: Mus musculus, read-out: ED50 Hot Plate; for antagonism of analgesia by naloxone: analgesic tests (Hot Plate and Abdominal Constriction)
Method: as §2, §3, §4

[5] = test system: cholinesterase (guinea pig ileum as the enzyme source); test: Anticholinesterase Test (method of Ellman, Courtney et al.); assay type: biochemical; details: concentrations up to 6.4 ug/ml where stated
Method: Anticholinesterase activity was assessed using the method of Ellman, Courtney et al., (1961) using guinea pig ileum as the enzyme source.

cholinesterase = details: cited from earlier work
[6] = relative to morphine; cited from earlier work
[7] = Naloxone 10 ng/ml (so in the source)

Row | SMILES | antagonist activity against morphine [1] | inhibition of electrically induced contractions ([1]; guinea pig ileum) | antagonism by naloxone ([1]; guinea pig ileum) | receptor selectivity / receptor population compared with morphine [1] | opioid (opiate-like) activity in vitro [1] | antagonism of analgesia by naloxone (mice [4]; mice) | enhancement of electrically induced contractions / excitatory stage ([1]; guinea pig ileum) | evidence of cholinesterase inhibition on the ileum [1] | also measured
1 | CN1c2ccc(O)cc2C23CCCCC12N(CC1CC1)CC3 (racemic) [1,2,3,4-tetrahydro-6-hydroxy-9-methyl-10-cyclopropylmethyl-9a,4a-(iminoethano)-9H-carbazole] | no detectable antagonist activity against morphine | inhibited the contractions of the ileum, but was of weaker potency | Naloxone had little antagonist activity |  |  |  |  |  | 
2 | C=CCN1CCC23CCCCC12N(C)c1ccc(O)cc13 (racemic) [6-Hydroxy-9-methyl-10-allyl-echiboline, 1,2,3,4-tetrahydro-6-hydroxy-9-methyl-10-allyl-9a,4a-(iminoethano)-9H-carbazole] | no antagonist activity against morphine |  | antagonized by naloxone; also recorded: relative lack of potency of naloxone as an antagonist | interaction with a different receptor population than that with which morphine interacts; also recorded: likely to be the "kappa" receptor | possesses opioid agonist activity in vitro |  |  |  | IC50, inhibition of contractions of the ileum [1]: 0.3 µg/mL; potency relative to morphine [1]: about ten times less potent than morphine
3 | CN1CCC23CCCCC12N(C)c1ccc(O)cc13 (racemic) [6-hydroxy-9,10-dimethyl-echiboline, 1,2,3,4-tetrahydro-6-hydroxy-9,10-dimethyl-9a,4a-(iminoethano)-9H-carbazole] |  | similarly inhibited the electrically-induced contractions | antagonised by naloxone in a concentration-dependent manner | differs from that of morphine | possessed opiate-like activity | antagonised by naloxone | at no stage was an excitatory stage seen; also recorded: No enhancement of contractions was seen | no evidence of cholinesterase inhibition | ED50 (mice [2]): 0.23 mg/kg; antagonism by naloxone compared with morphine [3]: some ten times less effective as an antagonist than against morphine; log dose ratio (±S.D.), shift by naloxone, vas deferens [3, 7]: 0.87 (+0.19); log dose ratio (±S.D.), shift by naloxone, vas deferens ([3]; Naloxone 500 ng/ml): 1.66 (+0.13); ED50 (mice [4]; sc, mice, subcutaneous injection, 95% confidence intervals): 1.71 mg/kg; potency relative to morphine in mice (mice [4]; mouse, in vivo, sc): somewhat greater than that predicted from the in vitro tests; anti-cholinesterase inhibitory activity [5]: no evidence of cholinesterase inhibitory activity; anti-cholinesterase inhibitory activity ([5]; listed as echiboline derivative): no detectable anti-cholinesterase inhibitory activity; log dose ratio (±S.D.), shift by naloxone, ileum ([1]; Naloxone 5 ng/ml): 0.91 (+0.27); log dose ratio (±S.D.), shift by naloxone, ileum [1, 7]: 1.54 (+0.22); EC50 (±SD) Guinea-pig ileum ([1]; Table 1, mean of not less than 12 determinations, S.D. range on next line): 0.0335 µg/mL (≈ 0.13 µM); inhibition, some individual values ([1]; guinea pig ileum, individual values): over 90%
4 | CN1CCC2(C)c3cc(O)ccc3N(C)C12 (single isomer, unassigned) [eseroline, reference compound] |  | concentration-dependent inhibition of contractions | antagonised by naloxone in a concentration-dependent manner |  | has opiate activity |  | enhanced electrically-induced contractions of the muscle | evidence for anti-cholinesterase activity was also seen | anticholinesterase activity (cholinesterase): retains undesirable anticholinesterase activity; analgesic properties [6]: approximately equipotent with morphine; maximum inhibition of electrically induced contractions ([1]; guinea pig ileum): about 50%
5 | C=CCN1CC[C@]23c4c5ccc(O)c4O[C@H]2C(=O)CC[C@@]3(O)[C@H]1C5 [Naloxone, naloxone, reference compound] |  |  |  |  |  | effective antagonist |  |  | 
6 | CN1CC[C@]23c4c5ccc(O)c4O[C@H]2[C@@H](O)C=C[C@H]3[C@H]1C5 [morphine, reference compound] |  | familiar inhibition of the preparation | naloxone antagonism was confirmed |  |  |  |  |  | times more potent than (±)-6-hydroxy-9,10-dimethyl-echiboline ([3]; mouse vas deferens, from EC50 values): 3.6 times; ED50 (mice [4]; sc): 3.22 mg/kg; times more potent than (±)-6-hydroxy-9,10-dimethyl-echiboline ([1]; guinea pig ileum, from EC50 values): 2.8 times
